Assay results as given in US20240050513A1, “COMPOSITION FOR PREVENTING, AMELIORATING, OR TREATING DISEASE CAUSED BY PROTEIN NITRATION […] WITH TERMINAL TYROSINE AS EFFECTIVE COMPONENT” (INDUSTRY-ACADEMIC COOPERATION FOUNDATION GYEONGSANG …, priority 2021, published 2024).

What was measured:
catalase (CAT) = experiment: Hippocampal catalase activity in ischemic stroke model; type: in vivo, Mongolian gerbils; conditions: hippocampus, 200 mg/kg i.p. once, twenty-four hours after reperfusion
Procedure: (§1) Three-month-old male Mongolian gerbils were induced with general anesthesia using 3% isoflurane and the anesthesia was maintained with 2.5% isoflurane gas. After sterilizing the neck area, a midline incision was made to expose both common carotid arteries, and microvessel clip was used to block the blood flow for 5 minutes, inducing cerebral ischemia to simulate a stroke. During the application of the microvessel clip, the body temperature was maintained at 37.0±0.5° C., and animals undergoing sham operation were used as the control group.
(§2) After inducing ischemia, the animal was, under reperfusion, intraperitoneally administered once with YQ peptide at a dose of 200 mg/kg. Two hours or twenty-four hours after the reperfusion, the animal was anesthetized with avertin. Then, the skull was quickly opened, and the brain was rapidly removed. The hippocampal tissue was collected and rapidly frozen in liquid nitrogen, then stored in a deep freezer. Subsequently, the activities of superoxide dismutase (SOD) and catalase (CAT) were measured by using SOD colorimetric activity kit and CAT colorimetric activity kit, respectively.

[1] = tested on: glutamine synthetase (GS); experiment: Hippocampal glutamine synthetase activity in kainic acid epileptic seizure model
Procedure: Kainic acid (KA) was dissolved in saline by heating in a water bath, resulting in a 4.5 mg/ml KA solution. The resulting KA solution was then intraperitoneally injected at a dose of 36 mg/kg, and seizure level and symptoms were recorded for 2 hours. The brain tissues (prefrontal cortex and hippocampus) of the mice that survived 16 hours or 5 days after the KA injection were collected.
To a 96-well plate, 2 μl of hippocampal homogenate was added, and 50 μl of 50 mM imidazole-HCl buffer (pH 6.8) were added to adjust the volume to 50 μl. Then, 50 μl of GS assay buffer (50 mM imidazole-HCl, pH 6.8, 25 mM L-glutamine, 12.5 mM hydroxylamine, 12.5 mM sodium arsenate, 1 mM MnCl2, and 0.08 mM ADP) were added and the reaction was allowed to occur at 37° C. for approximately 40 minutes. […] To terminate the reaction, 100 μl of stop solution (90 mM FeCl3, 1.8 N HCl, and 1.45% w/v trichloroacetic acid) were added to both the samples and the standard substance, and the absorbance was measured at 560 nm. The GS activity in each sample was determined by comparing it with the standard curve. GS activity was expressed as the generation amount of γ-glutamylhydroxamate, which is produced as a final product, and described in unit of μM/min/μg protein.

[2] = tested on: ischemic stroke Mongolian gerbils; experiment: Neuronal cell death in ischemic stroke model (cell count, immunohistochemical staining); type: in vivo
Procedure: as §1
After inducing ischemia, the animal was, under reperfusion, intraperitoneally administered with YQ peptide at a dose of 200 mg/kg, three times every 24 hours. On the fourth day, the animal was sacrificed, and brain tissues were collected to measure the number of dead neuronal cell.
Immunohistochemical staining was carried out to examine changes in neuronal cells and microglial cells and also a change in related factors in the hippocampus of an ischemic brain injury animal model. Specifically, after inducing ischemia, YQ peptide was administered intraperitoneally three times every 24 hours at a dose of 200 mg/kg under reperfusion. A control group was administered with a vehicle (i.e., 0.9% saline) instead of the peptide. On the 4th day, the animal was sacrificed, and brain tissue was collected and fixed with 4% paraformaldehyde at 4° C. Subsequently, the tissue was added to sucrose solutions of increasing concentrations (i.e., 10%, 20%, and 30%), frozen using liquid nitrogen, and sectioned into continuous slice specimens with a thickness of 30 μm. The specimens were stored in a cryoprotective solution at −20° C. The brain tissue specimen was rinsed three times for 10 minutes each with 0.01 M PBS and treated with 0.3% H2O2 for 30 minutes to eliminate endogenous peroxidase present in the tissue. To prevent any nonspecific immune reaction, the specimen was incubated for 30 minutes with 5% normal serum corresponding to each antibody. […]

[3] = tested on: renal ischemia-reperfusion C57BL/6 mice; conditions: 100 mg/kg oral, 24 hours of reperfusion
Procedure: Male C57BL/6 mice weighing 23 to 25 g were housed in a germ-free facility with controlled temperature and humidity. They were allowed free access to water and food. […] Renal ischemia was induced by midline laparotomy and occlusion of both renal pedicles using a Müller atraumatic vascular clamp for 25 minutes, followed by removal of the clamp for reperfusion. Control group (sham) underwent the same surgical procedures except the induction of ischemia using clamp. After 24 hours of reperfusion, the mice were sacrificed, and blood was collected from the heart, and the kidney tissue was harvested.
The collected blood was centrifuged at 3,000 rpm for 15 minutes to separate the serum, and the serum creatinine level, an indicator for evaluating kidney damage, was measured using the Jaffe method. The Jaffe method involves measuring the absorbance of the serum sample at 510 nm wavelength after reacting it with picric acid and then terminating the reaction with 60% acetic acid followed by measurement of absorbance, and calculating the concentration of creatinine in mg/mL units based on the difference in absorbance.
The total RNA was extracted from the kidney tissues using the Trizol method, and cDNA was synthesized using the RevertAid Reverse Transcription System (ThermoFisher). Quantitative PCR (qPCR) for inflammatory cytokines (IL-1β, IL-6, and MCP-1) was performed using the iQ SYBR Green Supermix (Bio-Rad) on the CFX Connect Real-Time PCR system (Bio-Rad). The relative amount of the target mRNA, normalized to GAPDH, was analyzed using the […].
The kidney tissue was homogenized in RIPA buffer, and protein quantification was performed using the BCA method. Western blot was then carried out using antibodies against nitrotyrosine and 4-hydroxynonenal (4-HNE), i.e., a product of lipid peroxidation.

[4] = tested on: chronic immobilization stress C57BL/6 mice; experiment: Cognitive function (ORT/OLT) in chronic immobilization stress model; type: in vivo; conditions: stress group, peptide-supplemented diet vs normal diet
Procedure: To analyze the long-term memory capacity of animals following the peptide diet of the present invention, both the object recognition test (ORT) and object location recognition test (OLT) were conducted (FIG. 1). The tests consisted of three phases: habituation, familiarization, and test. During the habituation phase, the animals were acclimated to the testing apparatus for 10 minutes per day over two days. On the third day at the familiarization phase, the animals were allowed to explore two identical objects for 10 minutes. Subsequently, on the fourth day at the test phase, one of the objects was replaced with a novel object, and the animals were allowed to explore for 10 minutes, with result recorded during the initial 5 minutes was used as test data. The object recognition test (ORT) index was calculated using the following formula.
Discrimination index=(N−F)/(N+F) • N: Time spent for exploring new object • F: Time spent for exploring familiar object
After 24 hours of performing the ORT, the location of the familiar object was changed, and the animals were allowed to explore for 5 minutes. During the total exploration time, the ratio of time spent exploring the object with a changed location was calculated to determine the object location recognition test (OLT) index.
A total of 28 seven-week-old male C57BL/6 mice were divided into two groups: a control group and a stress group. […]

[5] = tested on: superoxide dismutase (SOD); experiment: Hippocampal SOD activity in ischemic stroke model; type: in vivo, Mongolian gerbils; conditions: hippocampus, 200 mg/kg i.p. once, twenty-four hours after reperfusion
Procedure: as §1, §2

tyrosine-glutamine [YQ]
CAT activity (catalase (CAT)): activity increases
activity of glutamine synthetase ([1]; kainic acid-treated animals, YQ i.p vs normal diet): statistically significantly increased
activity of the glutamine synthetase in the hippocampal tissue ([1]; survived mice after kainic acid, 3xYQ): increased
number of neuronal cells ([2]; 200 mg/kg i.p. three times every 24 hours, fourth day): increase
cells found to survive compared to the sham operation group ([2]; hippocampal CA1 region, 200 mg/kg i.p. three times every 24 hours, 4th day): approximately 60.7%
morphological changes in glial cells ([2]; immunohistochemical staining, 200 mg/kg i.p. three times): minimal morphological changes
lipid peroxidation (4-HNE) in the kidney tissue ([3]; Western blot): significantly reduced
proteins with nitrated tyrosine in the kidney tissue ([3]; Western blot): significantly reduced
increase in expression level of IL-1β in kidney tissue ([3]; qPCR): statistically significantly inhibited
increase in expression level of IL-6 in kidney tissue ([3]; qPCR): statistically significantly inhibited
increase in expression level of MCP-1 in kidney tissue ([3]; qPCR): statistically significantly inhibited
cognitive function [4]: enhanced cognitive function
SOD activity [5]: activity increases
